The values that follow come from patent US20150018360A1, “COMPOSITIONS AND METHODS FOR TREATING METABOLIC DISORDERS” (BIOMED VALLEY DISCOVERIES, INC., priority 2011, published 2015).

Data set [1] deals with diet-induced obese (DIO) mice. Description: Oral glucose tolerance test (OGTT) in diet-induced obese mice. It counts as in vivo, mouse. The note with it: for glucose lowering effects in OGTT (glucose AUC): DIO C57BL/6 mice, 125 mg/kg i.p. once daily for 5 days. From the text:
High-fat diet feeding in rodents changes multiple biochemical and physiological parameters that reflect the biochemical and physiological changes observed in diet induced obesity (D10). Such diets induce dramatic changes in weight gain that are concomitant with elevations in serum cholesterol, lipids, and triglycerides. Moreover, these high fat diets can lead to atherosclerotic lesions as well as insulin resistance and dysregulation of glucose homeostatic mechanisms that are consistent with obesity induced changes in humans.
Type II diabetes is characterized by high blood glucose levels in the presence of normal amounts of insulin. The animal model or type II diabetes used in these studies involves administering high levels of glucose and then measuring blood glucose levels over time. The test is designed to determine the ability of the experimental animal to maintain glucose homeostasis over time. Drugs that lower blood glucose levels in type II diabetic patients also lower blood glucose levels in this animal model of type II diabetes.
Male C57BL/6J mice were fed a high fat diet for 5 weeks (age 6-11 weeks) prior to study. […] DIO mice were food deprived overnight prior to glucose load (1.5 g/kg, t0). Mice were treated with drug or vehicle 30 minutes before glucose load (t-30). Blood glucose was measured with a glucometer (Accu-Chek® Roche, Indianapolis, IN), from the tip of the tail in free moving mice, at 15 minutes before (t-15), 15 minutes after (t15), and 45 minutes after (t45) glucose load.
In these studies, C57BL/6 mice were fed a high fat diet from 6 to 11 weeks of age, resulting in diet-induced obesity. […] After 5 days of dosing, animals were fasted overnight prior to an oral glucose tolerance test (OGTT). The morning after fasting, a baseline glucose level was measured, followed by compound or vehicle dosing. A second blood glucose level was measured 15 minutes later. At 30 minutes past the first glucose measurement, animals were challenged with a 1.5 g/kg glucose solution per os (p.o.), and blood glucose levels determined 15 and 45 minutes later. Areas under the curve were determined for the blood glucose levels, baselined at the first measurement.

In data set [2] the test system is circulating prolactin levels. Nature of the data set: Prolactin assay (plasma prolactin ELISA after OGTT). Format: in vivo, mouse. The conditions noted are these: DIO mice, once daily i.p. for 5 days, plasma 45 min after glucose load. How it is done: Mice were treated with drug or vehicle 30 minutes before an OGTT (t-30). At 45 minutes after glucose load (t45), mice were bled via retro-orbital sinus into EDTA microfuge tubes. Plasma was rapidly prepared and stored at −80° C. until measurement of prolactin levels (ELISA kit, Genway Biotech, San Diego, Calif.).
Background: In an ELISA, binding on a coated surface is turned into a signal by an enzyme label.

Data set [3] is described as follows: Pharmacokinetic analysis in mice (plasma, LC/MS/MS). It counts as in vivo, mouse. The note with it: normal male mice, 10 mg/kg i.p. As for the experimental part:
Male C57B1/6 mice (n =4, two cohorts) were treated with drug and at the designated times after dosing (5, 15, 30, 60 and 120), whole blood was collected via the retro-orbital sinus in heparanized tubes and plasma prepared by centrifugation at 1650 relative centrifugal force (RCF) at 4° C. Plasma samples were extracted by a standard protocol using an acetonitrile/protein precipitation method, and levels of test agent were analyzed by LC/MS/MS.

The test system of another data set is serum prolactin levels. The conditions noted are these: rat, cited from earlier work; for increase in serum prolactin levels: marker of dopamine D2 receptor blockade.
Another data set concerns active GLP-1. Nature of the data set: Active GLP-1 in hepatoportal vein blood of normal mice. It counts as in vivo, mouse. The note with it: 10 mg/kg i.p., 15 min after glucose bolus. How it is done:
(§1) Normal male 12 week old C57BL/6J mice were food deprived 6 hours before the glucose load (1.5 g/kg, t0). Mice were treated with drug or vehicle 30 minutes before glucose load (t-30). Blood glucose was measured with a glucometer (Accu-Chek® Roche, Nutley, N.J.), from the tip of the tail in free moving mice, at t-30, t0, t15, t30, t60, t90, t120 minutes. Blood collection (about 20 μl) was performed from the tip of the tail at t-30, t15 and t30 for plasma insulin determination (ELISA kit, Alpco Diagnostics, Salem, N.H.). After a 1-week washout period, mice were randomly allocated into 2 groups. Mice were food deprived 6 hours before the glucose load (1.5 g/kg, t0) was performed. Mice were treated with drug or vehicle 30 minutes before glucose load. Blood glucose was measured at t0 and t15 minutes. At t15, mice were anesthetized with isoflurane and blood was collected from the hepatoportal vein (on EDTA/diprotin/ aprotinin anticoagulant cocktail). Plasma was rapidly prepared and stored at -80° C. The active form of GLP-1 was then measured (ELISA kit, Millipore, Billerica, Mass.).

The subject of the next data set is dopamine D2/D3 receptors. The note with it: in-vitro assays; cited from earlier work.
The test system of a further data set is normal mice. Nature of the data set: OGTT with plasma insulin determination in normal mice. The note with it: single dose 10 mg/kg i.p. It counts as in vivo, mouse. As for the experimental part:
as §1

The target in data set [4] is Kir6.2/SUR1 potassium channels (Homo sapiens, UniProt Q09428+Q14654). Description: Kir6.2/SUR1 potassium channel patch clamp (PatchXpress) in HEK293 cells. Background: The patch-clamp technique gives a direct electrical read-out from membranes.
Sequence of Kir6.2/SUR1 potassium channels (Q14654 whole entry): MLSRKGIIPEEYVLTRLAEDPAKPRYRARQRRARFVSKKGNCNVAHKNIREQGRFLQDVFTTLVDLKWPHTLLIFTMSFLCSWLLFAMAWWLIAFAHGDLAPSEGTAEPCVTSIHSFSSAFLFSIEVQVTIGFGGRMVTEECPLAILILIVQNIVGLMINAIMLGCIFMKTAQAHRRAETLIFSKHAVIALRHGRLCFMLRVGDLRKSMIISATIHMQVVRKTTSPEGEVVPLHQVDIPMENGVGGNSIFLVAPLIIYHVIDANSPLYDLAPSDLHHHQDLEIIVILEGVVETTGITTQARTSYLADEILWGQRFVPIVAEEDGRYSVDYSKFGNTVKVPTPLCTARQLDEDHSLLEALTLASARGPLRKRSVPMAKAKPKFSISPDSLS
Sequence of Kir6.2/SUR1 potassium channels (Q09428 whole entry): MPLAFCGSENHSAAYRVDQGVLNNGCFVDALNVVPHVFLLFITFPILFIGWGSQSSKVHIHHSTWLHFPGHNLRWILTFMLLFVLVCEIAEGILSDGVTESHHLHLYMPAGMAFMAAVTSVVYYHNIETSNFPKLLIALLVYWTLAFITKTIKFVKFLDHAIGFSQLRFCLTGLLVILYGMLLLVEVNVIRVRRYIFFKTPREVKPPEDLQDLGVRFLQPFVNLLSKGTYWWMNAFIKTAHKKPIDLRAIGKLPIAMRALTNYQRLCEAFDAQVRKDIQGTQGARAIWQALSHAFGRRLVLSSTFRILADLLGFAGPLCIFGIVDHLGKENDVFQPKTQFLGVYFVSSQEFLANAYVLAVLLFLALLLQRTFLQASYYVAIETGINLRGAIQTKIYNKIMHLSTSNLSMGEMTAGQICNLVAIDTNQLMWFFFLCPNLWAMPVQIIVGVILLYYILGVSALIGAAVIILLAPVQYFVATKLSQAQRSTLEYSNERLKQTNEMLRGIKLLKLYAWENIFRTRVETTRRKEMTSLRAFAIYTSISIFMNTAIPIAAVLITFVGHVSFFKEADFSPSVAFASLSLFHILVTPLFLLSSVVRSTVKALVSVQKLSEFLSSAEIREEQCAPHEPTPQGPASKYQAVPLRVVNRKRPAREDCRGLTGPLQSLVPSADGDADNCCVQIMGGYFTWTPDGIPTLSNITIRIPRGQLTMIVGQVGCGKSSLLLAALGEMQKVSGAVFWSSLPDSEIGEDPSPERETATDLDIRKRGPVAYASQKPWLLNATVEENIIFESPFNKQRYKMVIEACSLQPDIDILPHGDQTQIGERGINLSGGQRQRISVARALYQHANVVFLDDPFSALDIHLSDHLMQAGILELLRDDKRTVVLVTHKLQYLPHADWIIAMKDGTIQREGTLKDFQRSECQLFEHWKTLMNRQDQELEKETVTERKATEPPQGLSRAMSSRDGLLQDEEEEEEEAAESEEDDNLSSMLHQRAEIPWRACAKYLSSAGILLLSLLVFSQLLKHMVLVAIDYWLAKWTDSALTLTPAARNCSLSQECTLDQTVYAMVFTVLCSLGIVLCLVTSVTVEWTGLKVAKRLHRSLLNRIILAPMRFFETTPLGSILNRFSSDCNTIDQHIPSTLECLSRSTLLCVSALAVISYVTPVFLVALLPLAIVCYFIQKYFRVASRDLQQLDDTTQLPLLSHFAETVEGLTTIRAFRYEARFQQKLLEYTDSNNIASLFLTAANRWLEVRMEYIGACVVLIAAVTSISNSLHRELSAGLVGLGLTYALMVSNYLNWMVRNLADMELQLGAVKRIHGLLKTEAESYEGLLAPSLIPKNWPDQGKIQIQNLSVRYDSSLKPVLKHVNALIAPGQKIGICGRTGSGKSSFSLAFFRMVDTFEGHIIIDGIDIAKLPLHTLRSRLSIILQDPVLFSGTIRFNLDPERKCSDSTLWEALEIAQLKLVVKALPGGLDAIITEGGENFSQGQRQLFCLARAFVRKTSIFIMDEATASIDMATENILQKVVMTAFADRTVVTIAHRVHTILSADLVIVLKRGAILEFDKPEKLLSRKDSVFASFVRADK
Description: Inhibition is represented as % of control. “ns” represents not statistically significant or P>0.05.
Data set [5] can be described thus: Body weight of DIO mice during 15-day treatment. Format: in vivo, mouse. The note with it: either time-point or dose (data not shown).
The target of data set [6] is T1, human recombinant dipeptidyl dipeptidase-4 (DPP4) (Homo sapiens, UniProt P27487).
T1 construct: Cerep (contract laboratory that ran the assay)
T1 sequence (P27487 whole entry): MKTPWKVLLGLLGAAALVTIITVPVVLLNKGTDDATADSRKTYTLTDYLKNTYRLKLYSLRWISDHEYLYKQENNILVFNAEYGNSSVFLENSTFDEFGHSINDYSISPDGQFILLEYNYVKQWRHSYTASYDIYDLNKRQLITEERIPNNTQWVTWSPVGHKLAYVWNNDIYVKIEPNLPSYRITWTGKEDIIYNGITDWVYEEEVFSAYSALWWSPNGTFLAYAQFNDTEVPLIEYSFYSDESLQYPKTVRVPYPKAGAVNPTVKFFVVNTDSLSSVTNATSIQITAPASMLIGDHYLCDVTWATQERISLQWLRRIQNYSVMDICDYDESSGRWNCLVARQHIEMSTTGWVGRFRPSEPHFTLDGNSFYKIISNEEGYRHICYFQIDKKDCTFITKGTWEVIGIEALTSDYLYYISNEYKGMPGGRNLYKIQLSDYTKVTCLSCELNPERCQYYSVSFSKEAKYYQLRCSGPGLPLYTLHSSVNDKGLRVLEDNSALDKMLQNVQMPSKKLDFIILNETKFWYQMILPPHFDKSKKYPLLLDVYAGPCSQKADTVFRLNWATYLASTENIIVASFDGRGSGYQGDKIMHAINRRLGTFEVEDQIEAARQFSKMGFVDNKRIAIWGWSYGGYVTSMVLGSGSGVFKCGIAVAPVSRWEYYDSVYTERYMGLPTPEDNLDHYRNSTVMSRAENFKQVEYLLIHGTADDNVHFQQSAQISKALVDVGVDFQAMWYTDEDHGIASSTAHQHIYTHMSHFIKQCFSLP
Description: Human recombinant DPP4 assay with fluorogenic substrate GP-AMC. It counts as biochemical. The note with it: 10 μM; % of control; ns. How it is done:
DPP4 inhibitor K579 was used as a positive control. Assay was performed by Cerep (Bois l'Eveque, France).
Inhibition is represented as % of control.

Regarding `CCN1CCCC1CNC(=O)c1cc(S(N)(=O)=O)ccc1OC` (racemic) [(R/S)-sulpride], in data set [1], the “glucose lowering effects in OGTT (glucose AUC)” value is on record as “glucose lowering effects”.
As for `CCN1CCC[C@@H]1CNC(=O)c1cc(S(=O)(=O)CC)c(N)cc1OC` [(R)-amisulpride, (R)(+)-amisulpride], the “ED50 for effect on circulating prolactin levels” value in data set [2] amounted to 1.5 mg/kg. Moreover, the “maximal plasma drug levels” value in data set [3] is on record as “did not exceed concentrations used in the in vitro assays”. In the data set on serum prolactin levels, the “increase in serum prolactin levels” value is recorded as 1 fold and the “increase in ED50 required to reach maximal effect on prolactin, compared to (S)-amisulpride” value is on record as 40 fold. The “active form GLP-1 levels from the hepatic portal vein” value with active GLP-1 is recorded as “unchanged”. Besides, the “times less potent than (S)-amisulpride in displacing dopamine D2/D3 receptor ligands” value in the data set with dopamine D2/D3 receptors is listed as 20-40 times. In addition, the “increase in circulating insulin levels compared to vehicle” value in the data set with normal mice (OGTT) is “approximately 2.5 fold”. For the same compound, the glucose excursions entry with normal mice (vs vehicle) is on record as “significantly decreased”.
With `CCN1CCCC1CNC(=O)c1cc(S(=O)(=O)CC)c(N)cc1OC` (racemic) [(R/S)-amisulpride, amisulpride], the “% inhibition of Kir6.2/SUR1” value in [4] (10 μM, HEK293 cells, channel activated with 300 μM diazoxide, % of control, ns) is on record as 3.4 (2.4) %. Also, the “effect on the sulphonylurea receptor in-vitro” value in data set [4] (in-vitro (Table 5)) is given as “unaffected”. In addition, the “changes in body weight” value in data set [5] is listed as “No changes”. The “glucose lowering effects in OGTT (glucose AUC)” value in data set [1] is reported as “glucose lowering effects”. For the same compound, in data set [1] (DIO mice, 20 mg/kg, following 5 days of treatment, P<0.05 vs vehicle), the “fasting blood glucose levels” value stood at 158.7 ± 7.5 mg/dL. In data set [1] (DIO mice, once daily i.p. for 15 days, both amisulpride doses, OGTT on days 5 and 15), the “glucose excursion during the OGTT” value is on record as “significant reduction”. Besides, the “% inhibition of DPP4” value in [6] is 1.9 (2.0) %.
`CCN1CCC[C@H]1CNC(=O)c1cc(S(=O)(=O)CC)c(N)cc1OC` [(S)-amisulpride, (S)(−)-amisulpride]: in data set [2], the “ED50 for effect on circulating prolactin levels” value is listed as 0.01 mg/kg. For the same compound, in the data set on serum prolactin levels, the “increase in serum prolactin levels” value is listed as 4 fold.
